Data taken from patent US12018029B2, “Hexahydropyrrolo[3,4-c]pyrrole derivatives useful as LOX inhibitors” (THE INSTITUTE OF CANCER RESEARCH: ROYAL CANCER HOSPITAL, priority 2018, dated 2024).
Where two headings read alike, the source gives them in different places.

What was measured:
[1] = tested on: SW620 human colorectal carcinoma cells (mutant RAS); assay: SW620 xenografts, primary tumour; type: in vivo; details: ratio of average tumour volume treated/vehicle; 200 mg/kg po qd; p<0.05
Experimental: (§1) All procedures involving animals were approved by the Animal Welfare and Ethical Review Body of the Institute of Cancer Research and Cancer Research UK Manchester Institute in accordance with National Home Office regulations under the Animals (Scientific Procedures) Act 1986 and according to the guidelines of the Committee of the National Cancer Research Institute Tumour size was determined by caliper measurements of tumour length, width and depth and volume was calculated as volume=0.5236×length×width×depth (mm).
SW620 xenografts: NCr mice were inoculated subcutaneously in the right flank with 5×10^6 SW620 cells at 100 ul suspension per animal. Groups of 7-8 mice were assigned to treatment following stratified allocation of tumour volumes with a median size of circa 100 mm^3. […] Tumours and weights are measured twice weekly using calipers. […] Frozen samples are kept at −80 degree centigrade until being analysed and the fixed samples stained according to the desired marker.
(§2) For therapeutic efficacy assessment, the ratio of average tumour volume between compound treated and vehicle control treated (T/C) is calculated. […] The efficacy of LOX inhibitors described in this invention, as measured by T/C in a pancreatic cancer model, a colorectal cancer model and a breast cancer model is shown in Table 3 and is significant (p<0.05) for all the data presented.

[2] = tested on: MMTV-PyMT mammary tumours; assay: MMTV-PyMT transgenic mouse breast cancer model, primary tumour; type: in vivo, mice; details: ratio of average tumour volume treated/vehicle; @67 mpk po qd; p<0.05
Experimental: as §1
(§3) LOX Inhibitor Treatment of a Transgenic Mouse Breast Cancer Model
MMTV-PyMT (Guy et al, 1992) (FVB) female mice were randomized by non-statistical methods to LOX inhibitor treatment groups from day 70 post-birth, when animals had no detectable tumour. […] Tumour size was determined unblinded by caliper measurements of tumour length, width and depth and volume was calculated as 0.5236×length×width×depth (mm). […]
as §2

[3] = tested on: PDAC KPC TRP53 R172H (p53 mut) cells; assay: PDAC allograft, primary tumour, R172H (p53 mut); type: in vivo, mouse; details: ratio of average tumour volume treated/vehicle; 200 mg/kg po qd; p<0.05
Experimental: as §1
PDAC allografts: CD1 nu/nu female mice at 6 weeks of age were inoculated subcutaneously in the right flank with 2×10^6 PDAC KPC TRP53 R172H (p53 mut) cells at 100 ul suspension per animal. […] Tumours and weights are measured twice weekly using calipers. […] Frozen samples kept at −80 degree centigrade until being analysed and the fixed samples stained according to the desired marker.
as §2

[4] = tested on: MDA-MB-231 human breast adenocarcinoma; assay: MDA-MB-231 xenografts, primary tumour; type: in vivo; details: ratio of average tumour volume treated/vehicle; 200 mg/kg po qd; p<0.05
Experimental: as §1
MDA-MB-231 xenografts. […] Tumours and weights are measured twice weekly using calipers and the animals can be imaged using non-invasive method by bioluminescence using IVIS 200 imaging machine, weekly using 150 mg/kg luciferin administrate intraperitoneal or subcutaneous. […] Frozen samples kept at −80 degree centigrade until being analyzed and the fixed samples stained according to desired marker.
as §2

LOX = target: T1, LOX (Mus musculus, UniProt P28301); assay: LOX activity in cysts assay (roGFP2 LOX biosensor in MDCK cysts); type: cell-based; details: for IC50: read-out: LOX biosensor IC50 (cyst); for inhibition at 10 µM: read-out: LOX biosensor inhibition (cyst) @ 10 μM
T1 construct: Full length LOX cDNA was then PCR cloned into pEGFP-N1 (Clonetech), or biosensor vector proGFP2-N1; expressed in transfected cells; host or cells: MDCK cells grown as cysts on Matrigel
T1 sequence (P28301 163-411): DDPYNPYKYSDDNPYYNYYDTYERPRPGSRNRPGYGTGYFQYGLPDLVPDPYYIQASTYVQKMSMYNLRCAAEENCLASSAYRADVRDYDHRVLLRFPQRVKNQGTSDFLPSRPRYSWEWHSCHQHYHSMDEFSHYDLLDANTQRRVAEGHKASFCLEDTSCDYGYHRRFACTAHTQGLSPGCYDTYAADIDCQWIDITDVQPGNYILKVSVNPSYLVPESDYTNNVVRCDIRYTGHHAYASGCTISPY
Experimental: LOX Activity in Cysts Assay (Tang et al, 2017).
Cell Culture and Transfection
Cell lines were purchased from American Type Culture Collection (ATCC). […] MDCK cell lines were cultured in Dulbecco's Modified Eagle Medium (DMEM):F12 media supplemented with 10% foetal bovine serum (FBS) and 1% Penicillin Streptomycin solution (Pen Strep). Cells were incubated at 37° C. in a humidified incubator with 5% CO2. Lipofectamine 3000 or lentivirus was used to transfect MDCK cells with GFP constructs and cells were selected with G418 (Life Technologies) at 5 mg/ml. Cell culture reagents were purchased from Life Technologies.
To produce MDCK cysts, cells were cultured on Matrigel (Corning) with 2% Matrigel supplemented in DMEM with 10% FBS. Cysts were allowed to form for 10 days before subsequent studies.
Cloning of LOX Expression Constructs
Mouse LOX cDNA was purchased from OriGene. Full length LOX cDNA was then PCR cloned into pEGFP-N1 (Clonetech), or biosensor vector proGFP2-N1 (Hanson, 2004) using the following primers, […] (forward primer) and […] (reverse primer). For the insertion into pEGFP-N1 or proGFP2-N1, NheI and XhoI restriction sites were added to forward and reverse primers accordingly. Mutant LOX constructs were made using QuickChange II site-directed mutagenesis kit (Agilent Technologies) following manufacture's protocol using LOX-GFP as template. To generate, roGFP2 versions of LOX mutant constructs, LOX mutant cDNA was transferred from pEGFP-N1 to proGFP2-N1 using NheI and XhoI.
Confocal Imaging and Imaging Analysis
Photomicrographs of live MDCK cysts with a Leica TCS SP8 X confocal system were used to image the biosensor. The oxidised biosensor was excited using a 405 nm laser, while the reduced biosensor was excited with a 488 nm laser. Emission of the biosensor was recorded at 500 nm˜530 nm range using sequential scans. Ratio images were generated following a published protocol {Kardash, 2011 #376}. Note, while the published protocol generates YFP/CFP ratio images, we used it to generate Oxidised/Reduced (roGFP2 ratio) ratio images. The roGFP2 ratio at the basal surface of MDCK cysts was used to indicate LOX inhibition. LOX inhibitors were added 30 min prior to imaging.
The inhibition of LOX in cysts treated with LOX inhibitors compared to control (DMSO vehicle treated) cysts is shown in Table 2. For clarity, readout for DMSO treated cysts represents 0% inhibition (no inhibition) and readout for BAPN at 1 mM is used as 100% inhibition (full inhibition).

[5] = tested on: PDAC KP^flC (LOX H1 clone) cells; assay: PDAC allograft, primary tumour, p53 wt, LOX o/e; type: in vivo, mouse; details: ratio of average tumour volume treated/vehicle; 200 mg/kg po qd; p<0.05
[6] = tested on: MMTV-PyMT lung metastases; assay: MMTV-PyMT transgenic mouse breast cancer model, lung metastases; type: in vivo, mice; details: @67 mpk po qd, p<0.05
Experimental: as §3
MMTV-PyMT (Guy et al, 1992) (FVB) female mice were randomized by non-statistical methods to LOX inhibitor treatment groups from day 70 post-birth, when animals had no detectable tumour. Mice were treated daily by oral gavage with LOX inhibitor in vehicle, or daily vehicle (5% DMSO/2.5% Tween20 in water) by oral gavage. Tumour size was determined unblinded by caliper measurements of tumour length, width and depth and volume was calculated as 0.5236×length×width×depth (mm). In all experiments, mice were humanely killed and mammary tumours and lungs were collected when the primary tumours reached ethical limits or signs of ill health.
For lung metastases quantification, all mouse tissue samples were fixed in 10% formalin (Sigma) and embedded in paraffin. […] Lung metastases number was counted and area was measured using ImageScope. […] The ratio of average metastases surface between compound treated and vehicle control treated (T/C) is calculated. The ratio of average metastases numbers between compound treated and vehicle control treated (T/C) is also calculated. […] The antimetastatic efficacy of LOX inhibitors described in this invention, as measured by T/C in a model of breast cancer metastasizing to lungs is shown in Table 3 and is significant (p<0.05) for all the data presented.

[7] = 10 μM, MDCK cysts, DMSO = 0% inhibition, BAPN at 1 mM = 100% inhibition, inhibitors added 30 min prior to imaging

**Q.** What does the source list for `CCOc1ccc(N2C[C@H]3CN(C(=O)NCCO)C[C@H]3C2)cc1` [Example 1, cis-5-(4-Ethoxyphenyl)-N-(2-hydroxyethyl)hexahydropyrrolo[3,4-c]pyrrole-2(1H)-carboxamide]?
**A.** T/C, SW620 human colorectal carcinoma cells (mutant RAS) - primary tumour [1]: 0.55; T/C, MMT-PyMT breast transgenic model - primary tumour [2]: 0.3; T/C, PDAC (mouse pancreatic carcinoma) primary tumour a) R172H (p53mut) [3]: a) 0.54; T/C, MDA-MB-231 human breast adenocarcinoma - primary tumour [4]: 0.29; IC50 (LOX; MDCK cysts): < 560 nM; T/C, PDAC (mouse pancreatic carcinoma) primary tumour b) p53wt, LOX o/e [5]: b) 0.35; T/C, MMT-PyMT breast transgenic model - metastases a) Count ([6]; ratio of average lung metastases numbers treated/vehicle): a) 0.14; T/C, MMT-PyMT breast transgenic model - metastases b) Area ([6]; ratio of average lung metastases surface treated/vehicle): b) 0.02

**Q.** `CCOc1ccc(N2C[C@H]3CN(CCCC#N)C[C@H]3C2)cc1` [Example 2, cis-4-(5-(4-Ethoxyphenyl)hexahydropyrrolo[3,4-c]pyrrol-2(1H)-yl)butanenitrile] was tested. Which inhibition at 10 µM (LOX; [7]) did it give?
**A.** 65%

**Q.** What does the source list for `CCOc1ccc(N2C[C@]3(C)CN(C(=O)NCCO)C[C@]3(C)C2)cc1` [Example 3, cis-5-(4-Ethoxyphenyl)-N-(2-hydroxyethyl)-3a,6a-dimethylhexahydropyrrolo[3,4-c]pyrrole-2(1H)-carboxamide]?
**A.** T/C, PDAC (mouse pancreatic carcinoma) primary tumour a) R172H (p53mut) [3]: a) 0.58; IC50 (LOX; MDCK cysts): 1620 nM; inhibition at 10 µM (LOX; MDCK): 100%; T/C, PDAC (mouse pancreatic carcinoma) primary tumour b) p53wt, LOX o/e [5]: b) 0.42

**Q.** For `O=C(NC1CCCCC1)N1C[C@@H]2CN(c3ccc(N4CCS(=O)(=O)CC4)cc3)C[C@@H]2C1` [Example 9, cis-N-Cyclohexyl-5-(4-(1,1-dioxidothiomorpholino)phenyl)hexahydropyrrolo[3,4-c]pyrrole-2(1H)-carboxamide], which inhibition at 10 µM (LOX; [7]) is on record?
**A.** 100%

**Q.** `CCOc1ccc(N2C[C@H]3CN(C(=O)Oc4ccc([N+](=O)[O-])cc4)C[C@H]3C2)cc1` [Example 18, 4-Nitrophenyl 5-(4-ethoxyphenyl)hexahydropyrrolo[3,4-c]pyrrole-2(1H)-carboxylate] was tested. Which inhibition at 10 µM (LOX; [7]) did it give?
**A.** 97%

**Q.** For `C[C@@]12CN(C(=O)NCCO)C[C@]1(C)CN(c1ccc(N3CCN(S(C)(=O)=O)CC3)cc1)C2` [Example 28, cis-N-(2-Hydroxyethyl)-3a,6a-dimethyl-5-(4-(4-(methylsulfonyl)piperazin-1-yl)phenyl)hexahydropyrrolo[3,4-c]pyrrole-2(1H)-carboxamide], which inhibition at 10 µM (LOX; [7]) is on record?
**A.** 94%

**Q.** For `C[C@@]12CN(C(=O)NCCO)C[C@]1(C)CN(c1ccc(N3CCS(=O)(=O)CC3)cc1)C2` [Example 30, cis-5-(4-(1,1-Dioxidothiomorpholino)phenyl)-N-(2-hydroxyethyl)-3a,6a-dimethylhexahydropyrrolo[3,4-c]pyrrole-2(1H)-carboxamide], which inhibition at 10 µM (LOX; [7]) is on record?
**A.** 59%

**Q.** Which inhibition at 10 µM (LOX; [7]) does the source give for `N#CCCCN1C[C@@H]2CN(c3ccc(N4CCS(=O)(=O)CC4)cc3)C[C@@H]2C1` [Example 32, cis-4-(5-(4-(1,1-Dioxidothiomorpholino)phenyl)hexahydropyrrolo[3,4-c]pyrrol-2(1H)-yl)butanenitrile] here?
**A.** 100%

**Q.** Which inhibition at 10 µM (LOX; [7]) does the source give for `CCOc1ccc(N2C[C@H]3CN(C(=O)N4CCOCC4)C[C@H]3C2)cc1` [Example 37] here?
**A.** 100%

**Q.** Which inhibition at 10 µM (LOX; [7]) does the source give for `CCOc1ccc(N2C[C@H]3CN(C(=O)N4CCC(C#N)CC4)C[C@H]3C2)cc1` [Example 42, 1-(cis-5-(4-ethoxyphenyl)octahydropyrrolo[3,4-c]pyrrole-2-carbonyl)piperidine-4-carbonitrile] here?
**A.** 72%
